Assays:
[1] = water
[2] = Viscosity (ROTOVISCO RV100CV100-LV100, sensor ZB15); type: physicochemical
Text: ^b) Calculated with ROTOVISCO^(R) RV100CV100-LV100, sensor ZB15.

[3] = Osmolality (steampressure osmometer Wescor mod 5500); type: physicochemical
Text: ^a) Calculated with a steampressure osmometer Wescor(R) mod 5500,
calibrated with NaCl aqueous solutions.

[4] = physchem; conditions: water

- Solubility in H2 O at 30° C. [1]: > 100 g in 100 ml
- Viscosity at 20° C. ([2]; 200 mgI/ml): 5,7 mPa·s
- Viscosity at 20° C. ([2]; 300 mgI/ml): 24 mPa·s
- Viscosity at 20° C. ([2]; 400 mgI/ml): 112 mPa·s
- Viscosity at 37° C. ([2]; 200 mgI/ml): 3,4 mPa·s
- Viscosity at 37° C. ([2]; 300 mgI/ml): 12 mPa·s
- Viscosity at 37° C. ([2]; 400 mgI/ml): 41 mPa·s
- Osmolality ([3]; 200 mgI/ml): 0,17 osmol/kg H2 O
- Osmolality ([3]; 300 mgI/ml): 0,25 osmol/kg H2 O
- Osmolality ([3]; 400 mgI/ml): 0,72 osmol/kg H2 O
- solubility [4]: > 1000 mg/mL
Structure (SMILES): CC(=O)N(CC(=O)NCC(O)CNC(=O)CN(C(C)=O)c1c(I)c(C(=O)NCC(O)CO)c(I)c(C(=O)NCC(O)CO)c1I)c1c(I)c(C(=O)NCC(O)CO)c(I)c(C(=O)NCC(O)CO)c1I (centres unmarked) [5,5'-[(2-hydroxy-1,3-propanediyl)bis [imino(2-oxo-2,1-ethanediyl)acetylimino]]bis[N,N'-bis(2,3-dihydroxypropyl)-2,4,6-triiodo-1,3-benzenedicarboxyamide]]
